Series [1] concerns the target T1, hCB1 (Homo sapiens, UniProt P21554). The series is described as follows: cell-based.
For series [2], the system named is SafetyScreen44 Panel targets.
The test system of series [3] is alcohol-induced liver steatosis. The series is described as follows: Alcohol induced hepatic steatosis study. The format is in vivo, mouse. The conditions noted are these: female C57BL6 mice on ethanol diet; 0.03, 0.1, 0.3 mg/kg once daily oral gavage, last 2 weeks; effect at the two higher doses; p < 0.05 versus ethanol + vehicle.
The conditions of series [4]: mouse, 0.3 mg/kg PO.
Series [5] deals with T1, hCB1. The conditions noted are these: calcium assay, basal signaling.
Series [6] has as its target T1, hCB1. Particulars: ratio Ki hCB2/Ki hCB1.
For series [7] the following is noted: rat, 1 mg/kg PO.

Where two headings read alike, the source gives them in different places.

T1 sequence (P21554 whole entry): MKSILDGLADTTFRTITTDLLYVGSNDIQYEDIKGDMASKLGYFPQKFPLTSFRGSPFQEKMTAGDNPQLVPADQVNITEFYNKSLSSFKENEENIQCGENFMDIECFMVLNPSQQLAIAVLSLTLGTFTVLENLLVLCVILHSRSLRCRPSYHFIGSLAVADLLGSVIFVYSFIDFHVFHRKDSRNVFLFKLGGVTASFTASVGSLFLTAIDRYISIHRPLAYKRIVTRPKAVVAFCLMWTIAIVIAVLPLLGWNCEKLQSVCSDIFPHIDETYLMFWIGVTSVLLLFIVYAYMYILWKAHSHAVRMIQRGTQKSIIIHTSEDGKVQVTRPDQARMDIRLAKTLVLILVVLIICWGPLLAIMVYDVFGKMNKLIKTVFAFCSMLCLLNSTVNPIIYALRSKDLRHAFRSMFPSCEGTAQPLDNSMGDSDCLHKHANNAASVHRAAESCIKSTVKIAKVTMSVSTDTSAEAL

In turn, `O=C(NC1CCN(c2ncnc3c2nc(-c2ccccc2Cl)n3-c2ccc(Cl)cc2)CC1)N1CCOCC1` [Compound 18, N-{1-[8-(2-Chlorophenyl)-9-(4-chlorophenyl)-9H-purin-6-yl]-piperidin-4-yl}morpholine-4-carboxamide] registered a Kb on hCB1 [1] of 340 ± 60 nM. Still for that read-out and setting: the result for `CC1(NC(=O)NC2CCN(c3ncnc4c3nc(-c3ccccc3Cl)n4-c3ccc(Cl)cc3)CC2)CCC(F)(F)CC1` [Compound 23, 3-{1-[8-(2-Chlorophenyl)-9-(4-chlorophenyl)-9H-purin-6-yl]-piperidin-4-yl}-1-(4,4-difluoro-1-methylcyclohexyl)urea] reads 0.4 ± 0.3 nM; that for `O=C(Nc1cc(C(F)(F)F)[nH]n1)NC1CCN(c2ncnc3c2nc(-c2ccccc2Cl)n3-c2ccc(Cl)cc2)CC1` [Compound 39, 1-{1-[8-(2-Chlorophenyl)-9-(4-chlorophenyl)-9H-purin-6-yl]-piperidin-4-yl}-3-[5-(trifluoromethyl)-1H-pyrazol-3-yl]urea], 270 ± 60 nM. Still for that read-out and setting: the result for `O=C(NCC1CCCCC1)NC1CCN(c2ncnc3c2nc(-c2ccccc2Cl)n3-c2ccc(Cl)cc2)CC1` [Compound 25, 3-{1-[8-(2-Chlorophenyl)-9-(4-chlorophenyl)-9H-purin-6-yl]-piperidin-4-yl}-1-(cyclohexylmethyl)urea] reads 5 ± 3 nM; that for `O=C(NCC1CCCCC1)NC1CCN(c2ncnc3c2nc(-c2ccccc2Cl)n3-c2ccc(C(F)(F)F)nc2)CC1` [Compound 42, 3-{1-[8-(2-Chlorophenyl)-9-[6-(trifluoromethyl)pyridin-3-yl]-9H-purin-6-yl]piperidin-4-yl}-1-(cyclohexylmethyl)urea], 76 ± 34 nM. `CC1(NC(=O)Nc2ccc(F)cc2F)CCN(c2ncnc3c2nc(-c2ccccc2Cl)n3-c2ccc(Cl)cc2)CC1` [Compound 51, 3-{1-[8-(2-Chlorophenyl)-9-(4-chlorophenyl)-9H-purin-6-yl]-4-methylpiperidin-4-yl}-1-(2,4-difluorophenyl)urea] had a Kb on hCB1 [1] of 9 ± 4 nM. On hCB1 [1], `O=C(NC1CCN(c2ncnc3c2nc(-c2ccccc2Cl)n3-c2ccc(Cl)cc2)CC1)N1CCCC1` [Compound 16, N-{1-[8-(2-Chlorophenyl)-9-(4-chlorophenyl)-9H-purin-6-yl]-piperidin-4-yl}pyrrolidine-1-carboxamide] displayed a Kb of 190 ± 110 nM. For `O=C(Nc1ccc(OC(F)F)nc1)NC1CCN(c2ncnc3c2nc(-c2ccccc2Cl)n3-c2ccc(Cl)cc2)CC1` [Compound 38, 3-{1-[8-(2-Chlorophenyl)-9-(4-chlorophenyl)-9H-purin-6-yl]-piperidin-4-yl}-1-[6-(difluoromethoxy)pyridin-3-yl]urea], the “EC50 or IC50 on all targets tested” value in series [2] is above 10 µM. Also, the “hepatic lipid droplets (Oil Red O staining, ImageJ quantification)” value in series [3] is “statistically significant reduction of liver steatosis”. Also, in series [4], the “plasma HL” value is given as 11 h. The “neutral antagonist or inverse agonist of hCB1” value at hCB1 [5] is “inverse agonists”. At hCB1 [1], `Cn1cc(NC(=O)NC2CCN(c3ncnc4c3nc(-c3ccccc3Cl)n4-c3ccc(Cl)cc3)CC2)cn1` [Compound 40, 1-{1-[8-(2-Chlorophenyl)-9-(4-chlorophenyl)-9H-purin-6-yl]-piperidin-4-yl}-3-(1-methyl-1H-pyrazol-4-yl)urea] returned a Kb of 28000 ± 8000 nM. The same measure, in the same setting: then `O=C(NC1CCCCC1)NC1CCN(c2ncnc3c2nc(-c2ccccc2Cl)n3-c2ccc(Cl)cc2)CC1` [Compound 21, 3-{1-[8-(2-Chlorophenyl)-9-(4-chlorophenyl)-9H-purin-6-yl]-piperidin-4-yl}-1-cyclohexylurea], with 35 ± 10 nM; and `CC(C)(C)CNC(=O)NC1CCN(c2ncnc3c2nc(-c2ccccc2Cl)n3-c2ccc(Cl)cc2)CC1` [Compound 14, 1-{1-[8-(2-Chlorophenyl)-9-(4-chlorophenyl)-9H-purin-6-yl]-piperidin-4-yl}-3-(2,2-dimethylpropyl)urea], with 270 ± 130 nM; and `O=C(NC1CCN(c2ncnc3c2nc(-c2ccccc2Cl)n3-c2ccc(Cl)cc2)CC1)N1CCCCC1` [Compound 17, N-{1-[8-(2-Chlorophenyl)-9-(4-chlorophenyl)-9H-purin-6-yl]-piperidin-4-yl}piperidine-1-carboxamide], with 7 ± 4 nM.

Turning to `CC1(NC(=O)NC2CCCCC2)CCN(c2ncnc3c2nc(-c2ccccc2Cl)n3-c2ccc(Cl)cc2)CC1` [Compound 47, 3-{1-[8-(2-Chlorophenyl)-9-(4-chlorophenyl)-9H-purin-6-yl]-4-methylpiperidin-4-yl}-1-cyclohexylurea], the Kb on hCB1 [1] was found to be 7 ± 5 nM. Besides, the “Selectivity Ki CB2/CB1” value at hCB1 [6] is listed as above 769. On hCB1 [1], `CC1(NC(=O)Nc2ccc(OC(F)F)nc2)CCN(c2ncnc3c2nc(-c2ccccc2Cl)n3-c2ccc(Cl)cc2)CC1` [Compound 52, 3-{1-[8-(2-Chlorophenyl)-9-(4-chlorophenyl)-9H-purin-6-yl]-4-methylpiperidin-4-yl}-1-[6-(difluoromethoxy)pyridin-3-yl]urea] had a Kb of 46 ± 23 nM. On the same count and under the same terms, then `O=C(Nc1ccccn1)NC1CCN(c2ncnc3c2nc(-c2ccccc2Cl)n3-c2ccc(Cl)cc2)CC1` [Compound 31, 3-{1-[8-(2-Chlorophenyl)-9-(4-chlorophenyl)-9H-purin-6-yl]-piperidin-4-yl}-1-(pyridin-2-yl)urea], with 150 ± 50 nM.

`CC1(NC(=O)Nc2ccccc2F)CCN(c2ncnc3c2nc(-c2ccccc2Cl)n3-c2ccc(Cl)cc2)CC1` [Compound 50, 3-{1-[8-(2-Chlorophenyl)-9-(4-chlorophenyl)-9H-purin-6-yl]-4-methylpiperidin-4-yl}-1-(2-fluorophenyl)urea] yielded a Kb at hCB1 [1] of 1.6 ± 1.1 nM. On the same count and under the same terms, the result for `O=C(Nc1cccnc1C(F)(F)F)NC1CCN(c2ncnc3c2nc(-c2ccccc2Cl)n3-c2ccc(Cl)cc2)CC1` [Compound 36, 3-{1-[8-(2-Chlorophenyl)-9-(4-chlorophenyl)-9H-purin-6-yl]-piperidin-4-yl}-1-[2-(trifluoromethyl)pyridin-3-yl]urea] reads 160 ± 60 nM; that for `CCCN(CC(F)(F)F)C(=O)NC1CCN(c2ncnc3c2nc(-c2ccccc2Cl)n3-c2ccc(Cl)cc2)CC1` [Compound 12, 1-{1-[8-(2-Chlorophenyl)-9-(4-chlorophenyl)-9H-purin-6-yl]-piperidin-4-yl}-3-propyl-3-(2,2,2-trifluoroethyl)urea], 1.2 ± 0.6 nM. Turning to `O=C(Nc1ccc(F)cc1F)NC1CCN(c2ncnc3c2nc(-c2ccccc2Cl)n3-c2ccc(Cl)cc2)CC1` [Compound 33, 3-{1-[8-(2-Chlorophenyl)-9-(4-chlorophenyl)-9H-purin-6-yl]-piperidin-4-yl}-1-(2,4-difluorophenyl)urea], the “plasma HL” value in series [7] came out at 12 h. In addition, in series [4], the “plasma HL” value is listed as 12 h and the “time of plasma max. conc.” value came to 1 h. Moreover, the “neutral antagonist or inverse agonist of hCB1” value on hCB1 [5] is “inverse agonists”.

At hCB1 [1], `O=C(NC1CCN(c2ncnc3c2nc(-c2ccccc2Cl)n3-c2ccc(Cl)cc2)CC1)NC1(C(F)(F)F)CCCC1` [Compound 20, 1-{1-[8-(2-Chlorophenyl)-9-(4-chlorophenyl)-9H-purin-6-yl]-piperidin-4-yl}-3-[1-(trifluoromethyl)cyclopentyl]urea] gave a Kb of 12 ± 8 nM. Same read-out and setting: the result for `O=C(Nc1ccc(F)c(F)c1)NC1CCN(c2ncnc3c2nc(-c2ccccc2Cl)n3-c2ccc(Cl)cc2)CC1` [Compound 34, 3-{1-[8-(2-Chlorophenyl)-9-(4-chlorophenyl)-9H-purin-6-yl]-piperidin-4-yl}-1-(3,4-difluorophenyl)urea] reads 290 ± 80 nM. As to `O=C(NCC1CCC(F)(F)CC1)NC1CCN(c2ncnc3c2nc(-c2ccccc2Cl)n3-c2ccc(Cl)cc2)CC1` [Compound 26, 3-{1-[8-(2-Chlorophenyl)-9-(4-chlorophenyl)-9H-purin-6-yl]-piperidin-4-yl}-1-[(4,4-difluorocyclohexyl)methyl]urea], the Kb on hCB1 [1] turned out to be 28 ± 15 nM. Compound `CN1CCC(CNC(=O)NC2CCN(c3ncnc4c3nc(-c3ccccc3Cl)n4-c3ccc(Cl)cc3)CC2)CC1` [Compound 27, 3-{1-[8-(2-Chlorophenyl)-9-(4-chlorophenyl)-9H-purin-6-yl]-piperidin-4-yl}-1-[(1-methylpiperidin-4-yl)methyl]urea] gave a Kb on hCB1 [1] of 25000 ± 12000 nM. Still for that read-out and setting: the result for `CC1(NC(=O)NCc2ccccc2F)CCN(c2ncnc3c2nc(-c2ccccc2Cl)n3-c2ccc(Cl)cc2)CC1` [Compound 49, 3-{1-[8-(2-Chlorophenyl)-9-(4-chlorophenyl)-9H-purin-6-yl]-4-methylpiperidin-4-yl}-1-[(2-fluorophenyl)methyl]urea] reads 14 ± 7 nM; that for `CC1(NC(=O)NC2CCC(F)(F)CC2)CCN(c2ncnc3c2nc(-c2ccccc2Cl)n3-c2ccc(Cl)cc2)CC1` [Compound 48, 3-{1-[8-(2-Chlorophenyl)-9-(4-chlorophenyl)-9H-purin-6-yl]-4-methylpiperidin-4-yl}-1-(4,4-difluorocyclohexyl)urea], 2 ± 1 nM; that for `O=C(Nc1ccccc1F)NC1CCN(c2ncnc3c2nc(-c2ccccc2Cl)n3-c2ccc(F)cc2)CC1` [Compound 44, 3-{1-[8-(2-Chlorophenyl)-9-(4-fluorophenyl)-9H-purin-6-yl]-piperidin-4-yl}-1-(2-fluorophenyl)urea], 3800 ± 1500 nM. On the same count and under the same terms, the result for `CC1(NS(=O)(=O)NC2CCCCC2)CCN(c2ncnc3c2nc(-c2ccccc2Cl)n3-c2ccc(Cl)cc2)CC1` [Compound 54, N-Cyclohexyl({1-[8-(2-chlorophenyl)-9-(4-chlorophenyl)-9H-purin-6-yl]-4-methylpiperidin-4-yl}amino)sulfonamide] reads 17 ± 3 nM.

The values above are taken from PMC7656562 (Journal of medicinal chemistry, 2019).
